Experiment [1] relates to mice. The experiment can be described thus: Maximal ElectroShock (MES)-induced tonic seizure test. It counts as in vivo. The following applies: Mus musculus; for ED50: read-out: Mice MES ED50 (mpk/peak time); for responders at 50 mg/kg: 4 h. The method, then: The “Maximal ElectroShock (MES)” test is a well-established pharmacological screening method for anticonvulsants against tonic-clonic seizures. The procedure employed in the MES test for anticonvulsants is as follows. The compounds to be tested were dissolved in 30% PEG400 and administered ip and po into animals. After the designated number of hours, maximal electroshock (50 mA, 60 Hz, 0.2 sec) was applied into animals via corneal electrodes using IITC Life Science model 11A Shocker. […] Median efficacy dose (ED50) levels were determined using three different dose levels with at least 8 mice in each group.

In experiment [2] the test system is mice. The experiment in a line: Pentylenetetrazol (PTZ)-induced clonic seizure test. It counts as in vivo. As to conditions: Mus musculus, sc, read-out: Mice PTZ ED50 (mpk/peak time). On the procedure:
The “Pentylenetetrazol (PTZ)” test for anticonvulsant and antianxiety activity was also carried out.
The procedure employed in the PTZ test is as follows. The compounds to be tested were dissolved in 30% PEG400 and administered ip and po into animals. After the designated number of hours, each animal was injected subcutaneously with 100 mg/kg of PTZ (CD97 dose) and observed for up to 30 minutes for the presence or absence of clonic spasms over 5 seconds. Median efficacy dose (ED50) levels were determined using three different dose levels with 8 mice in each group.

The test system of experiment [3] is mice. The experiment in a line: Forced swimming test (FST). It counts as in vivo. The following applies: 30 min after dosing. On the procedure: The “Forced swimming test (FST)” for antidepressant activity was also carried out. The procedure employed in the FST for antidepressant is as follows. The compounds to be tested were dissolved in 30% PEG400 and administered ip and po into animals. 30 min later, the immobility time during post 4 minutes of 6 minutes experiment time was measured.

Experiment [4] concerns TBPS site of GABA-A receptor. The experiment in a line: GABA-A receptor (TBPS site) binding assay, [35S]TBPS. The following applies: 100 μM; rat brain membranes, 2 nM [35S]TBPS. The method, then:
Compounds of the inventions were tested for specific binding to TBPS (t-butyl bicyclophosphorothionate) site, an allosteric modulator site of GABA-A receptor as modified from G. Maksay and M. Simonyi, Eur. J. Pharmacol. 1985, 117(2), 275. and Gee, K. W. et al., J. Pharm. Exp. Ther. 1988, 246, 803.
This binding assay was performed using [35S] TBPS as radioligand in washed crude membrane homogenate from rat brains. Membrane preparations were carried out according to procedure described below. Sprague-Dawley (SD) rat weighting 230 g were killed by decapitation and their whole brains were rapidly removed and its cerebellums were excluded. The dissected brains were homogenized for 30 sec in 10 volumes (W/V) of ice-cold 0.32 M Sucrose and 50 mM Tris-citrate buffer pH 7.4 using glass homogenate. The homogenate was centrifuged at 2,000×g for 5 min at 4° C. And the supernatant re-centrifuged at 50,000×g for 20 min at 4° C. The supernatant was discarded and the resulting pellets were resuspended in 10 volumes (W/V) of ice-cold 50 mM Tris-citrate buffer pH 7.4. And then the suspended pellet was centrifuged at 50,000×g for 20 min at 4° C. The resulting pellets were suspended again in 32 volumes (W/V) of ice-cold 50 mM Tris-citrate buffer pH 7.4 with 0.05% Triton X-100 and then incubated in 37° C. for 60 min using a water bath. The incubated suspension was centrifuged at 50,000×g for 20 min at 4° C. Resuspending and centrifugation step of the remained pellets were repeated twice at the same manner and final pellets were resuspended in 10 volumes (W/V) of ice-cold 50 mM Tris-citrate buffer pH 7.4 to enable distribution of 2 ml aliquot in microcentrifuge tube, which were used immediately or kept at −80° C. for no more than 1 month before use.
For TBPS site binding assay, 50 μl of the tested compound were added to 100 μg membrane protein suspended in 0.15 ml of 50 mM Tris-citrate buffer with 200 mM NaCl pH 7.4 in presence of 2 nM of [35S] TBPS. The incubation of mixtures were carried out for 1.5 hours at 25° C. and then rapidly filtered over Whatman GF/C glass fiber filters, followed by twice 4.5 ml rinses with ice-cold incubation buffer. The filters were placed in counting vials and 4 ml scintillation solution. The vials were counted in a Beckman scintillation counter. Non-specific binding was determined in parallel incubations with 100 μM picrotoxin.
IC50 values for TBPS site binding assay was calculated using Graphpad PRISM v.3.00.

The target in a further experiment is T1, rat dopamine transporter (Rattus norvegicus, UniProt P23977).
T1 construct: expressed in transfected cells
The experiment in a line: Dopamine transport (DAT) assay, [3H]dopamine uptake in CHO D8 cells. It counts as cell-based. The method, then: The “Dopamine Transport (DAT)” assay for dopamine uptake inhibition was also carried out. In order to test dopamine uptake inhibition, compounds of the inventions were assayed as modified from Zhaoping Liu et. al., Neuropharmacology, 2001, 41, 464.
Cultured CHO cells were […] with recombinant plasmid, DAT-pCDNA3, which encodes rat dopamine transporter. Several subclones were selected and assayed for [3H] dopamine uptake. The clone with the highest uptake, designated D8, was chosen for Dopamine transport assay of compounds.
For the Dopamine transport assay, D8 cells were cultured in 48-well plate using RMPI1640 containing 10% FCS. D8 cells, grown to 60,000 cells per well, each wells were rinsed once with phosphate buffered saline (PBS) and pre-incubated in 100 μl Hank's balanced salt solution (HBSS) for 10 min at room temperature. The buffer was then changed to 50 μl HBSS containing the tested compounds and 350 μl HBSS containing reaction components ([3H] dopamine, ascorbic acid and pargyline). Final concentrations of [3H] dopamine, ascorbic acid and pargyline are 151 nM, 100 μM and 100 μM, respectively. The cells were incubated for 20 min at room temperature and the reaction was terminated by aspiration of the buffer and washed three times with 1 ml cold BS. The cells were then solubilized in 2N NaOH and an aliquot was measured by liquid scintillation counting to quantify the uptake of [3H] dopamine.

The subject of experiment [5] is mice. The experiment can be described thus: Light-Dark Box (LDB) test. The experiment is classed as in vivo. The following applies: treated 30 min prior to testing. On the procedure: Light-Dark Box (LDB) test, one of the unconditioned conflict tests, was used to investigate anxiolytic activity for several drugs such as Diazepam, Buspirone, etc (Allikmets et al, 1996; Belzung and Griebel, 2001; Cutler and Aitken, 1991; Leyre et al, 2004). In the present study, anxiolytic effect of azole compounds containing carbamoyl group represented by general structural formula (IX) was investigated on the LDB test in mice.
The animals were treated with compound 30 min prior to testing. The light-dark box consisted of a plexiglas apparatus measuring 45 cm×27 cm×27 cm (L×W×H), and was partitioned into two compartments, one fully opaque (dark compartment made of black plexiglas: 18 cm of total length of apparatus), while the second was lit from the compartment ceiling by a 100 W bulb. A small opening (7×7 cm) in the partition wall allowed free passage between the light and dark compartments.
Animals were placed at the lit compartment first, and the latency for escape into dark was checked and tested in the LDB for 5 min after the first entering into dark box. The animal, which the latency was over 2 min, was excluded from the test. Total time spent in the light compartment was counted. Movement of animal was checked through the TV-CCD camera by an experienced observer blind to the conditions of the experiment. A mouse whose four paws were in the new box was considered as having changed box.

[6] abbreviates: read-out: Mice MES Protection % (mpk/peak time).

T1 sequence (P23977 whole entry): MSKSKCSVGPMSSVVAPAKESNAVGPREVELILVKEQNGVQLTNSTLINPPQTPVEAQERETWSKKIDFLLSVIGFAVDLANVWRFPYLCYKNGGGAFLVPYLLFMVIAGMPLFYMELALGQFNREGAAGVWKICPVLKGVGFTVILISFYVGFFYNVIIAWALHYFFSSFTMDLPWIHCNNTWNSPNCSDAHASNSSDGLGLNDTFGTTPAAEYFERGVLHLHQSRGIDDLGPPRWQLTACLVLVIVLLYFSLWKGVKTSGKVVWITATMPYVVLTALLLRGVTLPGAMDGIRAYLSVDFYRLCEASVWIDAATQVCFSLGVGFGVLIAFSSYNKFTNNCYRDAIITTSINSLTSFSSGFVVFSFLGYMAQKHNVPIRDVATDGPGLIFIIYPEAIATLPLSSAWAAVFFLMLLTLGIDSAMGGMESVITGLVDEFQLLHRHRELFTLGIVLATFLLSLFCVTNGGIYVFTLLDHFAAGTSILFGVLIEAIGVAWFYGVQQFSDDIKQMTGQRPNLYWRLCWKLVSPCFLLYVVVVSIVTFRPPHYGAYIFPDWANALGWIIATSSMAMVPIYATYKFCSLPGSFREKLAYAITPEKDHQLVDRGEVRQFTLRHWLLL

Consider `NC(=O)OC(Cn1nccn1)c1ccccc1Cl` (stereo not shown) [Example 1, Carbamic acid 1-(2-chloro-phenyl)-2-[1,2,3]triazol-2-yl-ethyl ester], for which the ED50 was determined as 10.7 mg/kg with mice [1] (0.5 h) and 24.5 mg/kg in the experiment on mice [2] (0.5 h). The “Mice FST Reduction of immobility %” value in the experiment on mice [3] is recorded as “N.S”. The “TBPS Inhibition % (At 100 μM)” value in experiment [4] was 18.3%. On rat dopamine transporter, the inhibition at 10 µM was determined as 47.3%.
Turning to `NC(=O)OC(Cn1ncnn1)c1ccccc1` (stereo not shown) [Example 4, Carbamic acid 1-phenyl-2-tetrazol-2-yl-ethyl ester], the responders at 30 mg/kg in the experiment with mice [1] (0.5 h, read-out: Mice MES Protection % (mpk/peak time)) came to 66.7%. Also, the “Mice FST Reduction of immobility %” value in the experiment on mice [3] (dose not given) is recorded as 40.3%. In addition, the inhibition at 10 µM against rat dopamine transporter came to 41.5%.
As for `NC(=O)OC(Cn1nccn1)c1ccccc1` (stereo not shown) [Example 7, Carbamic acid 1-phenyl-2-[1,2,3]triazol-2-yl-ethyl ester], the ED50 in the experiment with mice [1] (0.5 h) stood at 26.2 mg/kg. For the same compound, the inhibition at 10 µM at rat dopamine transporter was -21.1%.
Regarding `NC(=O)O[C@@H](Cn1ncnn1)c1ccccc1Cl` [Example 20, Carbamic acid (R)-1-(2-chloro-phenyl)-2-tetrazol-2-yl-ethyl ester], the results for the ED50 with mice [1] (0.5 h) and in the experiment on mice [2] (0.5 h) were 4.24 mg/kg and 3.76 mg/kg, respectively. The “Mice FST Reduction of immobility %” value in the experiment on mice [3] (dose not given) is on record as −24.3%. The inhibition at 10 µM on rat dopamine transporter turned out to be 7.1%.
Turning to `NC(=O)O[C@H](Cn1ncnn1)c1ccccc1Cl` [Example 21, Carbamic acid (S)-1-(2-chloro-phenyl)-2-tetrazol-2-yl-ethyl ester], the ED50 in the experiment with mice [1] (0.5 h) was found to be 14.2 mg/kg; in the experiment with mice [2] (0.5 h) it was 28.8 mg/kg. Further, the inhibition at 10 µM on rat dopamine transporter amounted to 20.9%.
In the case of `NC(=O)OC(Cn1nccn1)c1ccc(Cl)c(Cl)c1` (stereo not shown) [Example 25, Carbamic acid 1-(3,4-dichloro-phenyl)-2-[1,2,3]triazol-2-yl-ethyl ester], the responders at 50 mg/kg in the experiment on mice [1] (setting [6]) came to 100%. Besides, the “Mice FST Reduction of immobility %” value in the experiment with mice [3] (dose not given) amounted to 94.1%. The inhibition at 10 µM at rat dopamine transporter is 70.7%.
On to `NC(=O)OC(Cn1ncnn1)c1ccc(Cl)c(Cl)c1` (stereo not shown) [Example 26, Carbamic acid 1-(3,4-dichloro-phenyl)-2-tetrazol-2-yl-ethyl ester], for which the responders at 50 mg/kg in the experiment on mice [1] (setting [6]) is 100%. Also, the “Mice FST Reduction of immobility %” value with mice [3] (dose not given) is 97.5%. The inhibition at 10 µM against rat dopamine transporter came out at 88.2%.
Consider `NC(=O)OC(Cn1nccn1)c1ccc(Cl)cc1Cl` (stereo not shown) [Example 29, Carbamic acid 1-(2,4-dichloro-phenyl)-2-[1,2,3]triazol-2-yl-ethyl ester], for which, in the experiment on mice [5] (dose not given), the “Mice LDB % Duration in the light box” value was 288.5% ^. For the same compound, the ED50 in the experiment with mice [1] (1 h) worked out at 14.4 mg/kg; in the experiment with mice [2] (1 h) it was 16.8 mg/kg. The “Mice FST Reduction of immobility %” value in the experiment with mice [3] is given as “N.S”. Moreover, the inhibition at 10 µM at rat dopamine transporter is -27.5%.
For the compound `NC(=O)OC(Cn1ncnn1)c1ccc(Cl)cc1Cl` (stereo not shown) [Example 30, Carbamic acid 1-(2,4-dichloro-phenyl)-2-tetrazol-2-yl-ethyl ester], the “Mice LDB % Duration in the light box” value in the experiment with mice [5] (dose not given) is on record as 143.6% ^. For the same compound, the results for the ED50 with mice [1] (1 h) and with mice [2] (1 h) were 14.9 mg/kg and 12.2 mg/kg, respectively. The “Mice FST Reduction of immobility %” value with mice [3] is given as “N.S”. Further, the inhibition at 10 µM against rat dopamine transporter was determined as 15.1%.
On to `CNC(=O)O[C@@H](Cn1ncnn1)c1ccccc1Cl` [Example 45, Methyl-carbamic acid (R)-1-(2-chloro-phenyl)-2-tetrazol-2-yl-ethyl ester], for which, in the experiment with mice [5], the “Mice LDB % Duration in the light box” value is “N.S”. In addition, the ED50 in the experiment on mice [1] (0.5 h) turned out to be 4.88 mg/kg; with mice [2] (0.5 h), 5.81 mg/kg. Also, the inhibition at 10 µM at rat dopamine transporter is -58.1%.
Turning to `NC(=O)O[C@H](Cn1nccn1)c1ccc(Cl)c(Cl)c1` [Example 87, Carbamic acid (S)-1-(3,4-dichloro-phenyl)-2-[1,2,3]triazol-2-yl-ethyl ester], in the experiment on mice [5], the “Mice LDB % Duration in the light box” value is recorded as “N.S”. In the experiment with mice [1] (0.5 h), the ED50 came out at 14.8 mg/kg. Also, in the experiment with mice [3] (dose not given), the “Mice FST Reduction of immobility %” value is reported as 92.5%. For the same compound, the “TBPS Inhibition % (At 100 μM)” value in experiment [4] is given as 50.1%. Also, the inhibition at 10 µM against rat dopamine transporter came out at 93.8%.
For the compound `NC(=O)O[C@H](Cn1ncnn1)c1ccc(Cl)c(Cl)c1` [Example 96, Carbamic acid (S)-1-(3,4-dichloro-phenyl)-2-tetrazol-2-yl-ethyl ester], the ED50 in the experiment with mice [1] (0.5 h) worked out at 10.4 mg/kg. Besides, the “Mice FST Reduction of immobility %” value in the experiment with mice [3] (dose not given) is reported as 95.8%. Besides, the inhibition at 10 µM on rat dopamine transporter came to 98.4%.
Consider `NC(=O)O[C@@H](Cn1ncnn1)c1c(Cl)cccc1Cl` [Example 126, Carbamic acid (R)-1-(2,6-dichloro-phenyl)-2-tetrazol-2-yl-ethyl ester], for which the “Mice LDB % Duration in the light box” value with mice [5] (dose not given) turned out to be 241.5% ^. Also, the results for the ED50 with mice [1] (0.5 h) and with mice [2] (0.5 h) were 2.7 mg/kg and 5.06 mg/kg, respectively. Besides, the “Mice FST Reduction of immobility %” value with mice [3] (dose not given) is given as 72.0%. Also, the “TBPS Inhibition % (At 100 μM)” value in experiment [4] worked out at 0.3%.
In the case of `NC(=O)O[C@@H](Cn1ccnn1)c1ccc(Cl)cc1Cl` [Example 130, Carbamic acid (R)-1-(2,4-dichloro-phenyl)-2-[1,2,3]triazol-1-yl-ethyl ester], the “Mice LDB % Duration in the light box” value in the experiment on mice [5] is “N.S”. For the same compound, the ED50 in the experiment on mice [1] (0.5 h) stood at 24 mg/kg; with mice [2] (0.5 h), 8 mg/kg. The “Mice FST Reduction of immobility %” value in the experiment on mice [3] (dose not given) amounted to 8.8%. Moreover, in experiment [4], the “TBPS Inhibition % (At 100 μM)” value worked out at 42.8%.

The values are drawn from patent publication US7598279B2, “Neurotherapeutic azole compounds” (SK Holdings Co., Ltd., priority 2005, dated 2009).
